Source: patent US20010021697A1, “METHODS AND COMPOSITIONS FOR THE TREATMENT OF MAMMALIAN INFECTIONS EMPLOYING MEDICAMENTS COMPRISING HYMENOPTERA VENOM, PROTEINAGEOUS OR POLYPEPTIDE COMPONENTS THEREOF, OR ANALOGUES OF SUCH PROTEINACEOUS OR POLYPEPTIDE COMPONENTS” (priority 1987, published 2001)
Like-named read-outs stand apart in the source and are kept apart here.

Assays:
[1] = system: kanamycin resistant S. aureus; assay: Checkerboard titration assay for synergy of honeybee venom with antibiotics (OD660 growth curves); type: cell-based
E. coli #G1880E = type: cell-based

Polymyxin B
susceptibility to polymyxin B compared with the parent strain [1]: more susceptible to polymyxin B than the parent strain
MEAN A660 ([1]; POLY B = 12.5, HBV = 0, T0): 0.009
MEAN A660 ([1]; POLY B = 12.5, HBV = 0, T2): 0.068
MEAN A660 ([1]; POLY B = 12.5, HBV = 0, T4): 0.266
MEAN A660 ([1]; POLY B = 12.5, HBV = 0, T6): 0.640
MEAN A660 ([1]; POLY B = 12.5, HBV = 0, T8): 0.826
MEAN A660 ([1]; POLY B = 12.5, HBV = 0, T12): 0.976
MEAN A660 ([1]; POLY B = 12.5, HBV = 0, T24): 0.962
MEAN A660 ([1]; POLY B = 25, HBV = 0, T0): 0.009
MEAN A660 ([1]; POLY B = 25, HBV = 0, T2): 0.068
MEAN A660 ([1]; POLY B = 25, HBV = 0, T4): 0.243
MEAN A660 ([1]; POLY B = 25, HBV = 0, T6): 0.629
MEAN A660 ([1]; POLY B = 25, HBV = 0, T8): 0.835
MEAN A660 ([1]; POLY B = 25, HBV = 0, T12): 1.008
MEAN A660 ([1]; POLY B = 25, HBV = 0, T24): 1.048
MEAN A660 ([1]; POLY B = 50, HBV = 0, T0): 0.009
MEAN A660 ([1]; POLY B = 50, HBV = 0, T2): 0.068
MEAN A660 ([1]; POLY B = 50, HBV = 0, T4): 0.208
MEAN A660 ([1]; POLY B = 50, HBV = 0, T6): 0.376
MEAN A660 ([1]; POLY B = 50, HBV = 0, T8): 0.567
MEAN A660 ([1]; POLY B = 50, HBV = 0, T12): 0.841
MEAN A660 ([1]; POLY B = 50, HBV = 0, T24): 0.968
MEAN A660 ([1]; POLY B = 100, HBV = 0, T0): 0.009
MEAN A660 ([1]; POLY B = 100, HBV = 0, T2): 0.068
MEAN A660 ([1]; POLY B = 100, HBV = 0, T4): 0.243
MEAN A660 ([1]; POLY B = 100, HBV = 0, T6): 0.629
MEAN A660 ([1]; POLY B = 100, HBV = 0, T8): 0.835
MEAN A660 ([1]; POLY B = 100, HBV = 0, T12): 1.008
MEAN A660 ([1]; POLY B = 100, HBV = 0, T24): 1.048
MEAN A660 (E. coli #G1880E; POLY B = 1.5, HBV = 0, T0): 0.012
MEAN A660 (E. coli #G1880E; POLY B = 1.5, HBV = 0, T2): 0.040
MEAN A660 (E. coli #G1880E; POLY B = 1.5, HBV = 0, T4): 0.411
MEAN A660 (E. coli #G1880E; POLY B = 1.5, HBV = 0, T6): 0.984
MEAN A660 (E. coli #G1880E; POLY B = 1.5, HBV = 0, T8): 1.020
MEAN A660 (E. coli #G1880E; POLY B = 1.5, HBV = 0, T12): 1.075
MEAN A660 (E. coli #G1880E; POLY B = 1.5, HBV = 0, T24): 1.200
MEAN A660 (E. coli #G1880E; POLY B = 3, HBV = 0, T0): 0.012
MEAN A660 (E. coli #G1880E; POLY B = 3, HBV = 0, T2): 0.040
MEAN A660 (E. coli #G1880E; POLY B = 3, HBV = 0, T4): 0.138
MEAN A660 (E. coli #G1880E; POLY B = 3, HBV = 0, T6): 0.642
MEAN A660 (E. coli #G1880E; POLY B = 3, HBV = 0, T8): 0.943
MEAN A660 (E. coli #G1880E; POLY B = 3, HBV = 0, T12): 0.985
MEAN A660 (E. coli #G1880E; POLY B = 3, HBV = 0, T24): 1.116
MEAN A660 (E. coli #G1880E; POLY B = 6, HBV = 0, T0): 0.012
MEAN A660 (E. coli #G1880E; POLY B = 6, HBV = 0, T2): 0.040
MEAN A660 (E. coli #G1880E; POLY B = 6, HBV = 0, T4): 0.022
MEAN A660 (E. coli #G1880E; POLY B = 6, HBV = 0, T6): 0.014
MEAN A660 (E. coli #G1880E; POLY B = 6, HBV = 0, T8): 0.011
MEAN A660 (E. coli #G1880E; POLY B = 6, HBV = 0, T12): 0.109
MEAN A660 (E. coli #G1880E; POLY B = 6, HBV = 0, T24): 0.975
MEAN A660 (E. coli #G1880E; POLY B = 12, HBV = 0, T0): 0.012
MEAN A660 (E. coli #G1880E; POLY B = 12, HBV = 0, T2): 0.040
MEAN A660 (E. coli #G1880E; POLY B = 12, HBV = 0, T4): 0.018
MEAN A660 (E. coli #G1880E; POLY B = 12, HBV = 0, T6): 0.011
MEAN A660 (E. coli #G1880E; POLY B = 12, HBV = 0, T8): 0.009
MEAN A660 (E. coli #G1880E; POLY B = 12, HBV = 0, T12): 0.075
MEAN A660 (E. coli #G1880E; POLY B = 12, HBV = 0, T24): 0.472
MEAN A660 (E. coli #G1880E; POLY B = 625, HBV = 0, T0): 0.006
MEAN A660 (E. coli #G1880E; POLY B = 625, HBV = 0, T2): 0.074
MEAN A660 (E. coli #G1880E; POLY B = 625, HBV = 0, T4): 0.330
MEAN A660 (E. coli #G1880E; POLY B = 625, HBV = 0, T6): 0.766
MEAN A660 (E. coli #G1880E; POLY B = 625, HBV = 0, T8): 1.048
MEAN A660 (E. coli #G1880E; POLY B = 625, HBV = 0, T12): 1.238
MEAN A660 (E. coli #G1880E; POLY B = 625, HBV = 0, T24): 1.401
MEAN A660 (E. coli #G1880E; POLY B = 1250, HBV = 0, T0): 0.006
MEAN A660 (E. coli #G1880E; POLY B = 1250, HBV = 0, T2): 0.074
